Reference: paper PMC7352342, “Inhibition of Patched Drug Efflux Increases Vemurafenib Effectiveness against Resistant Braf^V600E Melanoma” (Cancers, 2020)
“And” between values parts separate entries of the source, which are not always exact repeats. Equal entries are not always repeated.

Assays:
chick embryos = experiment: sPAH toxicity on chick embryos; format: in vivo; details: 10 days
Method: These experiments were performed by the company INOVOTION (La Tronche, France). […] At this time (E9), an access point to the chorioallantoic membrane (CAM) was made by drilling a small hole through the eggshell into the air sac and a 1 cm^2 window was cut in the eggshell above the CAM. Twenty-one eggs were used for each condition. […] MeWo cells cultivated in DMEM medium with 10% FBS (and 1% penicillin/streptomycin) were detached with trypsin, washed with complete medium, labeled, and suspended in PBS. An inoculum of 3 × 10^6 cells was added onto the CAM of each egg (E9). Eggs were then randomized in 4 groups. The chick embryos were then treated every two days (E11, E13, E15, E17) for 10 days in total, by adding 100 µL of vehicle (1% DMSO in PBS) as a negative control or 100 µL of sPAH at 3 different doses onto the CAM. The number of dead embryos evaluates the toxicity after 10 days of the treatment, as does the observation of 22 abnormality checkpoints in surviving embryos.

human Ptch1 = molecular target: T1, human Ptch1 (Homo sapiens, UniProt Q13635); experiment: Microscale thermophoresis on membranes from yeast expressing human Ptch1; format: binding; details: membranes from yeast expressing hPtch1; MST; mean of 3 experiments
T1 construct: made in house; host or cells: yeast (membrane preparation)
T1 sequence (Q13635 1-1447): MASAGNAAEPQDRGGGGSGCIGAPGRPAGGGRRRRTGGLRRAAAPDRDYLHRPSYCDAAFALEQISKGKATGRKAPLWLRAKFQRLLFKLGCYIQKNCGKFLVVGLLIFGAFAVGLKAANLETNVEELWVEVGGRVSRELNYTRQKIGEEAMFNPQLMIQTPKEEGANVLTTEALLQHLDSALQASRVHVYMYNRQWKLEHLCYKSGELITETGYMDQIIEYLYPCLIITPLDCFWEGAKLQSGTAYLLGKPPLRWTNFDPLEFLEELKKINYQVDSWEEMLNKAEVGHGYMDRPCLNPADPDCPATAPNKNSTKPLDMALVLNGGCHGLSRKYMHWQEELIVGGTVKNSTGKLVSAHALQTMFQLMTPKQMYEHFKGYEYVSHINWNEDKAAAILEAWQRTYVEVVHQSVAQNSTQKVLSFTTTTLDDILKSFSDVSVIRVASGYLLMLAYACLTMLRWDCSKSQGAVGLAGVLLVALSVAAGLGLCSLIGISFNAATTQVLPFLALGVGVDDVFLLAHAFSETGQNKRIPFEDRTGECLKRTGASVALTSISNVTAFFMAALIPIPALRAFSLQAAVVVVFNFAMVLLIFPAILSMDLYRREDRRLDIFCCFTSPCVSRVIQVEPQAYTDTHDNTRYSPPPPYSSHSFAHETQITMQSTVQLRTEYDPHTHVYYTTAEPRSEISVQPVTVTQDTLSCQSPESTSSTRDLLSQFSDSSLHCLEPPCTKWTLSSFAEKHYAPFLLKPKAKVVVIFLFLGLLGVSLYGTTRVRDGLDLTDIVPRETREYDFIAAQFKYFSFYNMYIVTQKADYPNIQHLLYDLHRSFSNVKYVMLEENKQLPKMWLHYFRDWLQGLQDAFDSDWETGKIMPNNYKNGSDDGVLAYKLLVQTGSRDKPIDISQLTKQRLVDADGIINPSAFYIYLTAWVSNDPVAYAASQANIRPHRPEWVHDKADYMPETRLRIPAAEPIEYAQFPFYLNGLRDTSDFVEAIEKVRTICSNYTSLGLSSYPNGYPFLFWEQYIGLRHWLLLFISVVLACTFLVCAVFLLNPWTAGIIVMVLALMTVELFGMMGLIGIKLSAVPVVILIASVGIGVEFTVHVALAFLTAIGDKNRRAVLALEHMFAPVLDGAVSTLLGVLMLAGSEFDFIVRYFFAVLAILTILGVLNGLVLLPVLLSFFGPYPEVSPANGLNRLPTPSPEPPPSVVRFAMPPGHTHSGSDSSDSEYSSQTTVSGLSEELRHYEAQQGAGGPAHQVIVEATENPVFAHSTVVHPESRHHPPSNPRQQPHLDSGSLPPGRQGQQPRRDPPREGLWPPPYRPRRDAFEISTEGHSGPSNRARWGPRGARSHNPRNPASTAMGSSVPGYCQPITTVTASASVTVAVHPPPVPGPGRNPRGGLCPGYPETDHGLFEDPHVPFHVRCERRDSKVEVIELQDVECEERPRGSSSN
Method: Microscale thermophoresis (MST) is a biophysical technique that measures the strength of the interaction between two molecules by detecting a variation in the fluorescence signal of a fluorescently labeled target as a result of an IR-laser induced temperature change. The range of the variation in the fluorescence signal correlates with the binding of a ligand to the fluorescent target.
Membranes from yeast expressing human Ptch1 or human Smoothened were incubated at 30 µg/mL with 20 nM of the fluorescent dye NT-647 2nd gen (NanoTemper Technologies, München, Germany) to label the His-tag present at the c-terminus of both proteins. […] The fluorescence within the capillary is excited and detected through the same objective. […] The MST response of fluorescent proteins within the temperature gradient is detected. After activation of the IR laser, a decrease in fluorescence is observed which corresponds to temperature-related intensity change (TRIC) triggered by the fast temperature change and thermophoretic movement of the fluorescent proteins out of the heated sample volume. […] For analysis, the change in MST signal is expressed as the change in the normalized fluorescence (Fnorm), which is defined as F1/F0. […] The sPAH Kd was determined for 3 independent experiments.

WM9R cells = experiment: Wound-healing assay, WM9R cells; format: cell-based; details: 48 h after wounding, sPAH added to vemurafenib
Method: Once cells were confluent in 24-well plates, a wound was created using a p200 tip. Two pictures were taken at two different points of each well immediately after wounding, and 48 h after wounding. Images were taken with Leica DM IRB (5×). The width of the wound was measured using ImageJ software and reported as percentage final wound width/initial wound width.

COc1cc(C)c(CC/C(C)=C/Cc2cc(O)ccc2O)c(C)c1C [sPAH, Panicein A hydroquinone]
abnormalities in surviving embryos (22 checkpoints) (chick embryos; 100 µM to 1 mM): no abnormalities were observed | acute toxicity (chick embryos; up to the highest dose of 1 mM): No acute toxicity was observed | Kd (human Ptch1): ~7 µM and 7.2 µM | effect on vemurafenib efficacy against cell migration (WM9R cells): the same effect was observed
